Results on four compounds are retold here after patent US20080269666A1, “Microneedles and Methods for Microinfusion” (GEORGIA TECH RESEARCH CORPORATION, priority 2005, published 2008).

Data set [1] can be described thus: Fluorescence microscopy of skin distribution after microinjection into hairless rat skin. The format is in vivo. The source says:
FIG. 17A-B are micrographs showing hairless rat skin microinjected in vivo with FITC-insulin. Histological sections are shown using brightfield microscopy with H&E staining (FIG. 17A) and fluorescence microscopy showing injection and distribution of insulin in the skin (FIG. 17B). Scale bar=100 μm. Single, hollow, glass microneedles were inserted into the back skin of anesthetized rats placed in a prone position or into human cadaver skin (2×2 cm^2) placed on a x-y stage. Compounds delivered included blue tissue-marking dye in PBS (20% v/v, Shandon, Pittsburg, Pa.), green-fluorescent calcein in PBS (10 μM-10 mM, Molecular Probes, Eugene, Oreg.). After microinfusion experiments, skin samples were preserved as described in Example 1. Histological sections of skin were examined by stereoscopic (SZX12, Olympus, Melville, N.Y.) and fluorescence microscopy (IX 70, Olympus). Images were recorded by a digital camera (Spot RT Slider camera, Model 231, Diagnostic Instruments, Sterling Heights, Mich.) and analyzed using image analysis software (Image Pro Plus, version 4.5, Media Cybernetics, Silver Spring, Md.). The volume of injected liquid was imaged in the skin for quantitative analysis using one of three different methods. […] During insulin delivery experiments, rats were anesthetized. […]

Data set [2] is described as follows: Effect of hyaluronidase on microneedle infusion flow rate into human cadaver skin in vitro. Conditions: 200 U/ml hyaluronidase in sulforhodamine solution vs without; bevel-tip microneedle inserted 1080 μm; 138 kPa; ANOVA p≦0.01. As to the method: To measure flow rate into skin during microneedle infusion, a single microneedle was inserted into human cadaver skin to microinfuse sulforhodamine solution and the infusion flow rate was measured over time. As an aid to visualizing flow into skin, sulforhodamine-B dye (Molecular Probes, Eugene, Oreg.) was added to PBS, stirred, and filtered (0.2 μm pore size, Nalge Nunc International, Rochester, N.Y.) to make 1×10^−3 M sulforhodamine solution. […]
The flow rate of sulforhodamine solution microinjection was determined by following movement of the gas-liquid meniscus in the syringe reservoir over time with a digital video camera (DCR-TRV460, Sony, Tokyo, Japan) and image analysis software (Adobe Photoshop 7.0, Adobe Systems, San Jose, Calif.) after converting the captured movie into sequences of still images (Adobe Premiere 6.0, Adobe Systems). […]
The effect of hyaluronidase was determined by comparing to an infusion fluid containing 200 U/ml hyaluronidase prepared by mixing 3 ml of hyaluronidase solution (Vitrase™, 200 U/ml, ISTA Pharmaceuticals, Irvine, Calif.) with 7 mL of 1×10^−3 M sulforhodamine solution. […] Microinfusion flow rate was measured as a function of retraction distance during infusion in the absence (white bars) or presence (black bars) of hyaluronidase. Data are expressed as mean values (n≧3) with standard deviation bars. […]

In data set [3] the test system is diabetic hairless rats. Nature of the data set: Blood glucose in diabetic hairless rats after insulin microinfusion through a hollow microneedle. The data set is classed as in vivo, rat. As for the experimental part:
During insulin delivery experiments, rats were anesthetized. Microneedle infusion was carried out as described in Example 4, using clinical insulin solution (100 U/ml, Humulin R, Eli Lilly, Indianapolis, Ind.), and FITC-labeled insulin in PBS (1 mg/ml, Sigma).
As a companion experiment, insulin was microinjected into the skin of diabetic hairless rats in vivo and blood glucose concentration was monitored over time. Microinjection was carried out via microneedle insertion to a depth of 500-800 μm and infusing for 30 min. The volume of insulin solution microinjected into diabetic rat skin was 5±1 μl over the 30-min infusion period. Over a 4.5-h monitoring period after infusion, blood glucose level dropped and then plateaued at approximately 25% below pre-treatment values. […] Data expressed as mean±SEM.
Recognizing that needle retraction can increase microinfusion, the insulin delivery experiment was repeated by inserting microneedles to the same initial depth in the skin and then retracting by 150-200 μm back toward the skin surface. […] The volume of insulin solution microinjected into diabetic rat skin after needle retraction was 29±12 μl over the 30-min infusion period. […]

As to `O=C(O)CN(CC(=O)O)Cc1cc2c(cc1O)Oc1cc(O)c(CN(CC(=O)O)CC(=O)O)cc1C21OC(=O)c2ccccc21` [calcein], the “distribution in skin after microinjection (fluorescence)” value in data set [1] (injection at a specific location within the dermis, histological sections) was “fluoresced more uniformly in both dermis and epidermis”.
For the compound hyaluronidase, the “increase in infusion flow rate” value in data set [2] turned out to be 7 fold.
“fluorescently labeled insulin: FITC-labeled insulin in PBS (1 mg/ml, Sigma)”: the “distribution in skin after microinjection (fluorescence)” value in data set [1] (rat, in vivo) was “distribute throughout the dermis”.
Turning to insulin, the “blood glucose level drop below pre-treatment values” in data set [3] (microneedle inserted 500-800 μm, no retraction, 30-min infusion of 100 U/ml insulin solution (5±1 μl injected), 4.5-h monitoring after infusion, plateau) is recorded as “approximately 25%”; in data set [3] (microneedle inserted to same depth then retracted 150-200 μm, 30-min infusion of 100 U/ml insulin solution (29±12 μl injected)) it was “approximately 70%”.
